Source: US5840684A, “Glycopeptide antibiotic derivatives” (Eli Lilly and Company, priority 1995, dated 1998)
Converted amounts (≈) assume the structure as drawn. “And” between values parts separate entries of the source, which are not always exact repeats. Equal entries are not always repeated.

Experiments:
[1] = system: Staphylococcus aureus S13E; assay type: cell-based
Description: (§1) The MIC's were determined using a standard broth micro-dilution assay.

[2] = system: Staphylococcus aureus SA1199B; assay type: cell-based
Description: as §1

[3] = system: Entercoccus faecium 180-1; assay: broth micro-dilution MIC; assay type: cell-based
Description: as §1

Entercoccus faecium 276 = assay: broth micro-dilution MIC; assay type: cell-based
Description: as §1

[4] = system: Staphylococcus aureus 446; assay: broth micro-dilution MIC; assay type: cell-based
Description: as §1

[5] = system: Staphylococcus aureus 447; assay: broth micro-dilution MIC; assay type: cell-based
Description: as §1

[6] = system: Staphylococcus aureus SA1199; assay: broth micro-dilution MIC; assay type: cell-based
Description: as §1

[7] = system: Staphylococcus aureus X400; assay: broth micro-dilution MIC; assay type: cell-based
Description: as §1

[8] = system: Staphylococcus aureus X778; assay: broth micro-dilution MIC; assay type: cell-based
Description: as §1

[9] = system: Streptococcus pyogenes C203; assay: broth micro-dilution MIC; assay type: cell-based
Description: as §1

Entercoccus faecium 180 = assay: broth micro-dilution MIC; assay type: cell-based; details: Entercoccus faecium 180
Description: (§2) The formula I compounds have in vitro and in vivo activity against Gram-positive pathogenic bacteria. The MIC's were determined using a standard broth micro-dilution assay.

Entercoccus faecium 2041 = assay: broth micro-dilution MIC; assay type: cell-based; details: Entercoccus faecium 2041
Description: as §2

[10] = system: Enterococcus gallinarum 245; assay: broth micro-dilution MIC; assay type: cell-based; details: Enterococcus gallinarum 245
Description: as §2

[11] = system: Staphylococcus epidermidis 270; assay: broth micro-dilution MIC; assay type: cell-based
Description: as §2

[12] = system: Staphylococcus haemolyticus 105; assay: broth micro-dilution MIC; assay type: cell-based
Description: as §2

[13] = system: Staphylococcus haemolyticus 415; assay: broth micro-dilution MIC; assay type: cell-based
Description: as §2

[14] = system: Streptococcus pneumoniae P1; assay: broth micro-dilution MIC; assay type: cell-based
Description: as §2

Streptococcus pyogenes = assay: mouse protection, experimentally-induced infection; assay type: in vivo; details: mice infected with Streptococcus pyogenes, two doses
Streptococcus pneumoniae = assay: mouse protection, experimentally-induced infection; assay type: in vivo; details: mice infected with Streptococcus pneumoniae, two doses
[15] = system: vancomycin-resistant enterococci; assay: broth micro-dilution, mean geometric MIC; assay type: cell-based, Enterococcus faecium and Enterococcus faecalis; details: enterococci, 24-hour incubation
[16] = system: vancomycin-susceptible enterococci; assay: broth micro-dilution, mean geometric MIC; assay type: cell-based, Enterococcus faecium and Enterococcus faecalis; details: enterococci, 24-hour incubation
[17] = system: Staphylococcus aureus SA1199A; assay: broth micro-dilution MIC; assay type: cell-based
Description: as §1

[18] = system: Staphylococcus aureus 489; assay: broth micro-dilution MIC; assay type: cell-based
Description: as §1

[19] = system: Staphylococcus aureus 491; assay: broth micro-dilution MIC; assay type: cell-based
Description: as §1

Escherichia coli EC14 = assay: broth micro-dilution MIC; assay type: cell-based
Description: as §2

[20] = system: Haemophilus influenzae RD; assay: broth micro-dilution MIC; assay type: cell-based; details: Haemophilus influenzae RD
Description: as §2

Row | Structure (SMILES) | MIC [1] | MIC [2] | MIC [3] | MIC (Entercoccus faecium 276) | MIC [4] | MIC [5] | MIC [6] | MIC [8] | MIC [9] | MIC (Entercoccus faecium 180) | MIC (Entercoccus faecium 2041) | MIC [10] | MIC [11] | MIC [12] | MIC [13] | MIC [14] | ED50 (Streptococcus pyogenes) | ED50 (Streptococcus pneumoniae) | mean geometric MIC, Vancomycin Resistant Strains [15] | mean geometric MIC, Vancomycin Sensitive Strains [16] | also measured
1 | CNC(CC(C)C)C(=O)NC1C(=O)NC(CC(N)=O)C(=O)NC2C(=O)NC3C(=O)NC(C(=O)NC(C(=O)O)c4cc(O)cc(O)c4-c4cc3ccc4O)C(OC3CC(C)(N)C(O)C(C)O3)c3ccc(c(Cl)c3)Oc3cc2cc(c3OC2OC(CO)C(O)C(O)C2OC2CC(C)(NCc3ccc(-c4ccc(F)cc4)cc3)C(O)C(C)O2)Oc2ccc(cc2Cl)C1O (stereo not shown) [Compound 211] | 0.5 µg/mL (≈ 0.281 µM) | 1 µg/mL (≈ 0.563 µM) | ≤ 0.06 µg/mL | ≤ 0.06 µg/mL | 1 µg/mL (≈ 0.563 µM) | 0.5 µg/mL (≈ 0.281 µM) | 0.5 µg/mL (≈ 0.281 µM) | 1 µg/mL (≈ 0.563 µM) | ≤ 0.06 µg/mL | ≤ 0.06 µg/mL | ≤ 0.06 µg/mL | ≤ 0.06 µg/mL | 0.5 µg/mL (≈ 0.281 µM) | 0.5 µg/mL (≈ 0.281 µM) | 0.5 µg/mL (≈ 0.281 µM) | ≤ 0.06 µg/mL | < 0.031 mg/kg/2 | 0.041 mg/kg/2 | 0.35 µg/mL | 0.024 µg/mL | MIC [7]: 0.5 µg/mL (≈ 0.281 µM)
2 | CN[C@H](CC(C)C)C(=O)N[C@H]1C(=O)N[C@@H](CC(N)=O)C(=O)N[C@H]2C(=O)N[C@H]3C(=O)N[C@H](C(=O)N[C@H](C(=O)O)c4cc(O)cc(O)c4-c4cc3ccc4O)[C@H](O[C@H]3C[C@](C)(N)[C@@H](O)[C@H](C)O3)c3ccc(c(Cl)c3)Oc3cc2cc(c3O[C@@H]2O[C@H](CO)[C@@H](O)[C@H](O)[C@H]2O[C@H]2C[C@](C)(NCc3ccc(OCc4ccc(Cl)cc4)cc3)[C@@H](O)[C@H](C)O2)Oc2ccc(cc2Cl)[C@H]1O [Compound 93] | 1 µg/mL (≈ 0.549 µM) | 1 µg/mL (≈ 0.549 µM) | ≤ 0.06 µg/mL |  | 2 µg/mL (≈ 1.1 µM) |  | 2 µg/mL (≈ 1.1 µM) | 1 µg/mL (≈ 0.549 µM) | ≤ 0.06 µg/mL | ≤ 0.06 µg/mL | ≤ 0.06 µg/mL | 1 µg/mL (≈ 0.549 µM) | 1 µg/mL (≈ 0.549 µM) | 1 µg/mL (≈ 0.549 µM) | 1 µg/mL (≈ 0.549 µM) | ≤ 0.06 µg/mL | 0.074 mg/kg/2 | 0.012 mg/kg/2 | 0.42 µg/mL | 0.042 µg/mL | MIC [17]: ≤ 0.06 µg/mL; MIC [7]: ≤ 0.06 µg/mL
3 | CNC(CC(C)C)C(=O)NC1C(=O)NC(CC(N)=O)C(=O)NC2C(=O)NC3C(=O)NC(C(=O)NC(C(=O)O)c4cc(O)cc(O)c4-c4cc3ccc4O)C(OC3CC(C)(N)C(O)C(C)O3)c3ccc(c(Cl)c3)Oc3cc2cc(c3OC2OC(CO)C(O)C(O)C2OC2CC(C)(NCc3ccc(C(c4ccccc4)c4ccccc4)cc3)C(O)C(C)O2)Oc2ccc(cc2Cl)C1O (stereo not shown) [Compound 46] |  |  |  |  |  |  |  |  |  |  |  |  |  |  |  |  | 0.378 mg/kg/2 | 0.156 mg/kg/2 | 0.71 µg/mL | 0.50 µg/mL | 
4 | CNC(CC(C)C)C(=O)NC1C(=O)NC(CC(N)=O)C(=O)NC2C(=O)NC3C(=O)NC(C(=O)NC(C(=O)O)c4cc(O)cc(O)c4-c4cc3ccc4O)C(OC3CC(C)(N)C(O)C(C)O3)c3ccc(c(Cl)c3)Oc3cc2cc(c3OC2OC(CO)C(O)C(O)C2OC2CC(C)(NCc3ccc(CCc4ccccc4)cc3)C(O)C(C)O2)Oc2ccc(cc2Cl)C1O (stereo not shown) [Compound 100] |  | 0.5 µg/mL (≈ 0.28 µM) | ≤ 0.06 µg/mL |  | 1 µg/mL (≈ 0.56 µM) |  |  |  | ≤ 0.06 µg/mL | 0.25 µg/mL (≈ 0.14 µM) | ≤ 0.06 µg/mL | 2 µg/mL (≈ 1.12 µM) | 0.5 µg/mL and 0.25 µg/mL | 1 µg/mL (≈ 0.56 µM) | 2 µg/mL and 4 µg/mL | ≤ 0.06 µg/mL | 0.062 mg/kg/2 | 0.046 mg/kg/2 | 0.71 µg/mL | 0.042 µg/mL | 
5 | CNC(CC(C)C)C(=O)NC1C(=O)NC(CC(N)=O)C(=O)NC2C(=O)NC3C(=O)NC(C(=O)NC(C(=O)O)c4cc(O)cc(O)c4-c4cc3ccc4O)C(OC3CC(C)(N)C(O)C(C)O3)c3ccc(c(Cl)c3)Oc3cc2cc(c3OC2OC(CO)C(O)C(O)C2OC2CC(C)(NCc3ccc(-c4ccc([N+](=O)[O-])cc4)cc3)C(O)C(C)O2)Oc2ccc(cc2Cl)C1O (stereo not shown) [Compound 64] | 2 µg/mL (≈ 1.11 µM) |  | ≤ 0.06 µg/mL | 0.5 µg/mL (≈ 0.277 µM) |  | 0.5 µg/mL (≈ 0.277 µM) | 1 µg/mL (≈ 0.554 µM) | 2 µg/mL (≈ 1.11 µM) |  |  | ≤ 0.06 µg/mL | 2 µg/mL (≈ 1.11 µM) | 0.5 µg/mL (≈ 0.277 µM) |  | 2 µg/mL (≈ 1.11 µM) | ≤ 0.06 µg/mL | 0.044 mg/kg/2 | < 0.031 mg/kg/2 | 0.71 µg/mL | 0.077 µg/mL | MIC [17]: ≤ 0.06 µg/mL
6 | CC(C)CC(C(=O)NC1C(=O)NC(CC(N)=O)C(=O)NC2C(=O)NC3C(=O)NC(C(=O)NC(C(=O)O)c4cc(O)cc(O)c4-c4cc3ccc4O)C(OC3CC(C)(N)C(O)C(C)O3)c3ccc(c(Cl)c3)Oc3cc2cc(c3OC2OC(CO)C(O)C(O)C2OC2CC(C)(NCc3ccc4ccccc4n3)C(O)C(C)O2)Oc2ccc(cc2Cl)C1O)N(C)Cc1ccc2ccccc2n1 (stereo not shown) [Compound 285] | 1 µg/mL (≈ 0.533 µM) | 1 µg/mL (≈ 0.533 µM) | 0.25 µg/mL (≈ 0.133 µM) | 0.5 µg/mL (≈ 0.267 µM) | 4 µg/mL (≈ 2.13 µM) | 32 µg/mL (≈ 17.1 µM) | 2 µg/mL (≈ 1.07 µM) | 1 µg/mL (≈ 0.533 µM) | ≤ 0.06 µg/mL | 16 µg/mL (≈ 8.53 µM) | 0.5 µg/mL (≈ 0.267 µM) | 16 µg/mL (≈ 8.53 µM) | 8 µg/mL (≈ 4.27 µM) | 16 µg/mL (≈ 8.53 µM) | 16 µg/mL (≈ 8.53 µM) | ≤ 0.06 µg/mL |  |  | 90 µg/mL | 2.4 µg/mL | MIC [18]: 1 µg/mL (≈ 0.533 µM); MIC [19]: 4 µg/mL (≈ 2.13 µM); MIC [17]: 0.25 µg/mL (≈ 0.133 µM); MIC [7]: 4 µg/mL (≈ 2.13 µM); MIC (Escherichia coli EC14): > 64 µg/mL; MIC [20]: > 64 µg/mL
